This is an account of results in US10202339B2, “Therapeutic compounds and compositions” (AGIOS PHARMACEUTICALS, INC., priority 2012, dated 2019).

SMILES strings stand for the structures.

Chain of IDH2 R140Q (P48735 40-452 R140Q): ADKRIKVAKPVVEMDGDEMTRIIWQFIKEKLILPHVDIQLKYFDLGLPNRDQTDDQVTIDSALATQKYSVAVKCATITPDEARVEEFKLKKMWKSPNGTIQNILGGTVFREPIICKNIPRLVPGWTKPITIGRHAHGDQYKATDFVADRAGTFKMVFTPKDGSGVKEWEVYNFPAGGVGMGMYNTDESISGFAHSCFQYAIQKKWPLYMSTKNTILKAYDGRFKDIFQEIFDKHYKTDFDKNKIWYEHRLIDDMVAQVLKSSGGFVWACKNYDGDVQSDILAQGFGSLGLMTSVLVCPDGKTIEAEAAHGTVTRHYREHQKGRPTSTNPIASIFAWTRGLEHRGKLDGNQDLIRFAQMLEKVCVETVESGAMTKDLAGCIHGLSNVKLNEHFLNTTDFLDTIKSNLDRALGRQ

This experiment addresses IDH2 R140Q (Homo sapiens (Human), UniProt P48735, R140Q). Kind of experiment: IDH2 R140Q enzymatic cofactor depletion assay (diaphorase/resazurin). It counts as biochemical. As to conditions: IDH2 R140Q enzyme, one hour preincubation with compound, one hour reaction; read-out: Enz R140Q. In a few lines:
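Enzyme preincubated with compound 1 h at room temperature, then reaction started with 50 μM NADPH and 6.3 mM α-KG and run 1 h at room temperature. Remaining NADPH measured by diaphorase (36 μg/ml)/resazurin (60 μM) stop mix, fluorescence read at Ex544/Em590 after 1 min.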
In general terms: The colour change of resazurin is a common sign of viable cells or microbes.
Take `O=C(Nc1ccc(F)c(C(F)(F)F)c1)Nc1cc(S(=O)(=O)NCC(F)(F)F)ccc1C1=CCOCC1` [Compound 159, 4-(3,6-dihydro-2H-pyran-4-yl)-3-(3-(4-fluoro-3-(trifluoromethyl)phenyl)ureido)-N-(2,2,2-trifluoroethyl)benzenesulfonamide]: the IC50 lay within 100 to 1000 nM.
`O=C(Nc1cccc(C(F)(F)F)c1)Nc1cc(S(=O)(=O)Nc2ccccc2)ccc1C1=CCOCC1` [Compound 161, 4-(3,6-dihydro-2H-pyran-4-yl)-N-phenyl-3-(3-(3-(trifluoromethyl)phenyl)ureido)benzene sulfonamide]: the IC50 lay in the range of 100 to 1000 nM.
`O=C(Nc1cccc(C(F)(F)F)c1)Nc1cc(S(=O)(=O)NCC2CC2)ccc1C1CCCCO1` (centres unmarked) [Compound 162, N-(cyclopropylmethyl)-4-(tetrahydro-2H-pyran-2-yl)-3-(3-(3-(trifluoromethyl)phenyl)ureido)benzene sulfonamide]: the IC50 was 100 to 1000 nM.
Under `O=C(Nc1cccc(Cl)c1)Nc1cc(S(=O)(=O)NCC2CC2)ccc1C1CCCCO1` (centres unmarked) [Compound 163, 3-(3-(3-chlorophenyl)ureido)-N-(cyclopropylmethyl)-4-(tetrahydro-2H-pyran-2-yl)benzenesulfonamide] stands 100 to 1000 nM; under `O=C(Nc1ccc(F)c(C(F)(F)F)c1)Nc1cc(S(=O)(=O)NCC2CC2)ccc1C1CCCCO1` (centres unmarked) [Compound 164, N-(cyclopropylmethyl)-3-(3-(4-fluoro-3-(trifluoromethyl)phenyl)ureido)-4-(tetrahydro-2H-pyran-2-yl)benzenesulfonamide], 100 to 1000 nM; under `O=C(Nc1cccc(C(F)(F)F)c1)Nc1cc(S(=O)(=O)NCC(F)(F)F)ccc1C1CCCCO1` (centres unmarked) [Compound 165, 4-(tetrahydro-2H-pyran-2-yl)-N-(2,2,2-trifluoroethyl)-3-(3-(3-(trifluoromethyl)phenyl)ureido)benzene sulfonamide], 100 to 1000 nM.
As for `O=C(Nc1ccc(F)c(Cl)c1)Nc1cc(S(=O)(=O)NCC(F)(F)F)ccc1C1CCCCO1` (centres unmarked) [Compound 166, 3-(3-(3-chloro-4-fluorophenyl)ureido)-4-(tetrahydro-2H-pyran-2-yl)-N-(2,2,2-trifluoroethyl)benzene sulfonamide], the figure is 100 to 1000 nM; as for `O=C(Nc1ccc(F)c(C(F)(F)F)c1)Nc1cc(S(=O)(=O)NCC(F)(F)F)ccc1C1CCCCO1` (centres unmarked) [Compound 167, 3-(3-(4-fluoro-3-(trifluoromethyl)phenyl)ureido)-4-(tetrahydro-2H-pyran-2-yl)-N-(2,2,2-trifluoroethyl)benzenesulfonamide], 100 to 1000 nM; as for `O=C(Nc1cccc(Cl)c1)Nc1cc(S(=O)(=O)NCC(F)(F)F)ccc1C1CCCCO1` (centres unmarked) [Compound 168, 3-(3-(3-chlorophenyl)ureido)-4-(tetrahydro-2H-pyran-2-yl)-N-(2,2,2-trifluoroethyl)benzenesulfonamide], 100 to 1000 nM.
Turning to `O=C(Nc1ncc(Cl)s1)Nc1cc(S(=O)(=O)NCC(F)(F)F)ccc1C1CCCCO1` (centres unmarked) [Compound 169, 3-(3-(5-chlorothiazol-2-yl)ureido)-4-(tetrahydro-2H-pyran-2-yl)-N-(2,2,2-trifluoroethyl)benzene sulfonamide], the IC50 lay in the range of 100 to 1000 nM.
In the case of `O=C(Nc1cccc(C(F)(F)F)c1)Nc1cc(S(=O)(=O)Nc2ccccc2)ccc1C1CCCCO1` (centres unmarked) [Compound 170, N-phenyl-4-(tetrahydro-2H-pyran-2-yl)-3-(3-(3-(trifluoromethyl)phenyl)ureido)benzenesulfonamide], the IC50 lay within 100 to 1000 nM.
For the compound `O=C(Nc1ncc(Cl)s1)Nc1cc(S(=O)(=O)NCC(F)(F)F)ccc1C1CCOC1` (centres unmarked) [Compound 172, 3-(3-(5-chlorothiazol-2-yl)ureido)-4-(tetrahydrofuran-3-yl)-N-(2,2,2-trifluoroethyl)benzene sulfonamide], the IC50 lay in the range of 1000 to 10000 nM.
In the case of `O=C(Nc1cccc(C(F)(F)F)c1)Nc1cc(S(=O)(=O)NCC(F)(F)F)ccc1C1CCCO1` (centres unmarked) [Compound 173, 4-(tetrahydrofuran-2-yl)-N-(2,2,2-trifluoroethyl)-3-(3-(3-(trifluoromethyl)phenyl)ureido)benzene sulfonamide], the IC50 was in the range of 100 to 1000 nM.
As for `O=C(Nc1cc(C(F)(F)F)ccn1)Nc1cc(S(=O)(=O)NCC(F)(F)F)ccc1C1CCCO1` (centres unmarked) [Compound 174, 4-(tetrahydrofuran-2-yl)-N-(2,2,2-trifluoroethyl)-3-(3-(4-(trifluoromethyl)pyridin-2-yl)ureido)benzene sulfonamide], the IC50 fell in the range of 1000 to 10000 nM.
Under `O=C(Nc1cccc(C(F)(F)F)c1)Nc1cc(S(=O)(=O)NCC(F)(F)F)ccc1OCC1CC1` [Compound 175, 4-(cyclopropylmethoxy)-N-(2,2,2-trifluoroethyl)-3-(3-(3-(trifluoromethyl)phenyl)ureido)benzenesulfonamide] stands 100 to 1000 nM; under `O=C(Nc1cccc(C(F)(F)F)c1)Nc1cc(S(=O)(=O)NCC(F)(F)F)ccc1OCC1CCCO1` (centres unmarked) [Compound 176, 4-((tetrahydrofuran-2-yl)methoxy)-N-(2,2,2-trifluoroethyl)-3-(3-(3-(trifluoromethyl)phenyl)ureido)benzenesulfonamide], 100 to 1000 nM.
As for `CCOc1ccc(S(=O)(=O)NCC(F)(F)F)cc1NC(=O)Nc1cccc(C(F)(F)F)c1` [Compound 177, 4-ethoxy-N-(2,2,2-trifluoroethyl)-3-(3-(3-(trifluoromethyl)phenyl)ureido)benzenesulfonamide], the figure is below 100 nM; as for `O=C(Nc1cccc(C(F)(F)F)c1)Nc1cc(S(=O)(=O)NCC(F)(F)F)ccc1OC1CCOCC1` [Compound 178, 4-((tetrahydro-2H-pyran-4-yl)oxy)-N-(2,2,2-trifluoroethyl)-3-(3-(3-(trifluoromethyl)phenyl)ureido)benzenesulfonamide], 100 to 1000 nM; as for `N#CC1(NS(=O)(=O)c2ccc(OCC3CC3)c(NC(=O)Nc3cccc(C(F)(F)F)c3)c2)CC1` [Compound 179, N-(1-cyanocyclopropyl)-4-(cyclopropylmethoxy)-3-(3-(3-(trifluoromethyl)phenyl)ureido)benzene sulfonamide], 100 to 1000 nM.
For `CCOc1ccc(S(=O)(=O)NC2COC2)cc1NC(=O)Nc1cccc(C(F)(F)F)c1` [Compound 180, 4-ethoxy-N-(oxetan-3-yl)-3-(3-(3-(trifluoromethyl)phenyl)ureido)benzenesulfonamide], the IC50 lay within 100 to 1000 nM.
Under `CCOc1ccc(S(=O)(=O)NC2(C#N)CC2)cc1NC(=O)Nc1cccc(C(F)(F)F)c1` [Compound 181, N-(1-cyanocyclopropyl)-4-ethoxy-3-(3-(3-(trifluoromethyl)phenyl)ureido)benzenesulfonamide] stands 100 to 1000 nM; under `O=C(Nc1cccc(C(F)(F)F)c1)Nc1cc(S(=O)(=O)NC2COC2)ccc1OCC1CC1` [Compound 183, 4-(cyclopropylmethoxy)-N-(oxetan-3-yl)-3-(3-(3-(trifluoromethyl)phenyl)ureido)benzenesulfonamide], 100 to 1000 nM; under `O=C(Nc1cccc(C(F)(F)F)c1)Nc1cc(S(=O)(=O)NCC(F)(F)F)ccc1OCC1CCOC1` (centres unmarked) [Compound 184, 4-((tetrahydrofuran-3-yl)methoxy)-N-(2,2,2-trifluoroethyl)-3-(3-(3-(trifluoromethyl)phenyl)ureido)benzenesulfonamide], 100 to 1000 nM.
